Measurements as given in patent US20140295012A1, “LATENT HUMAN IMMUNODEFICIENCY VIRUS REACTIVATION” (priority 2011, published 2014).
*1 amine or outer side, *2 acyl side, *3 side chain or, on linkers, in order; H or OH if unused. Where a SMILES comes first, the peptide text is derived from it. Bridges are numbered along the chain shown (N, C = ends). Roman numbers before positions name the chains, in order. [ ]: non-standard residue; d: D form. Actinocin(9to1) = Cc1c2oc3c(C)ccc(C(=O)[*:1])c3nc-2c(C(=O)[*:2])c(N)c1=O; NMeV = CN[C@H](C(=O)O)C(C)C; Sar = CNCC(=O)O

Experiments:
Assay type in all cases: cell-based
[1] = test system: chronically actively infected T cell lines (JNLG#35 and JNLG#44); experiment: Active HIV-1 transcription in chronically actively infected T cell lines JNLG#35 and JNLG#44 (GFP MCF); details: 48 hours
Procedure: Changes in HIV-1 transcription levels were determined after 48 hours by measuring GFP mean channel fluorescence intensity (GFP MCF). GFP MCF was plotted over the drug concentration for dactinomycin (FIG. 12A), the DNA intercalators daunorubicin (DM) (FIG. 12B) and rebeccamycin (RM) (FIG. 12C), as well as the transcription inhibitors ICRF-193 (FIG. 12D), DRB (FIG. 12E) and α-amanitin (FIG. 12F). The size of symbols indicates the respective cell viability in the sample (size range adjusted to 5-95%).
For this purpose, each of the compounds was titrated over a relevant range of concentrations on two chronically actively infected T cell lines (JNLG#35 and JNLG#44). These clonal cell lines are infected with a GFP-reporter virus. Forty eight hours after addition of the compounds, the effect of each compound on HIV-1 transcription was determined by flow cytometric analysis quantifying GFP mean channel fluorescence intensity (MCF).

P-TEFb/HEXIM-1 complex = experiment: Glycerol gradient sedimentation analysis of P-TEFb/HEXIM-1 complex in J89GFP cells (Western blot)
Procedure: J89GFP cells were left untreated, treated with a high concentration of dactinomycin for 1 hour or with the physiological optimal concentration (0.004 μg/ml or 0.01 μg/ml) for 18 hours. Cell lysates were separated on a glycerol gradient (10-45%). Each gradient fraction was separated on a 10% SDS-PAGE gel and transferred by Western blot. […] Band densities were determined using ImageJ and are presented as relative band density. […] Band densities were determined using ImageJ and are presented as relative band density.
Ten million J89GFP or CA5 T cells were left untreated or treated with 0.004 μg/mL, 0.01 μg/ml or 1 μg/mL dactinomycin for 18 hours or 1 hour, respectively. Cells were washed twice with cold PBS, then lysed for 30 minutes on ice in lysis buffer (0.5% TritonX100, 20 mM HEPES (pH7.9), 150 mM NaCl, 20 mM KCl, 2 mM MgCl2, 1 mM DTT, 0.2 mM EDTA, and protease inhibitor cocktail (P8340; SIGMA)), followed by centrifugation at 14,000 rpm for 10 minutes. The same amount of protein lysate was fractionated on 5 ml of a 10-45% glycerol gradient in lysis buffer in a SW-Ti55 rotor (Beckman Coulter; Miami, Fla.) for 16 hours at 45,000 rpm. Fractions were resolved on 10% SDS-PAGE and transferred to polyvinylidene fluoride membrane. The antibodies used for Western blotting were rabbit anti-Cdk9 (sc-484; Santa Cruz Biotechnology; Santa Cruz, Calif.) and rabbit anti-HEXIM1 (ab25388; Abcam; Cambridge, Mass.), respectively.
To test the idea that dactinomycin primed latent HIV-1 infection for reactivation by releasing P-TEFb (a complex of CDK9 and Cyclin T1) from its complex with HEXIM-1, the latently HIV-1 infected J89GFP or CA5 T cells were treated with 1.0 μg/ml dactinomycin for 1 hour or with the physiological optimal concentration of 0.004 μg/ml for 18 hours. Cell lysates were then separated on a glycerol gradient (10-45%) to reveal possible changes in the composition of the P-TEFb/HEXIM-1 complex. […] Each gradient fraction was separated on a SDS-PAGE gel and subjected to Western blotting. […] Similar results were obtained using anti-HEXIM-1 antibody. […] The minimal dactinomycin concentration to induce a shift towards the small complex was 0.01 μg/ml of dactinomycin. […] Similar results were obtained using the latently infected CA5 T cells.

HIV-1 LTR = experiment: Tat-independent activation of integrated LTR-GFP construct in NOMI reporter T cells; details: 24 hours
Procedure: FIGS. 6A-6C show HRF triggers suboptimal functional induction of NF-κB dependent gene expression. […] The HIV-1 reactivating kinetics were determined by stimulating CA5 T cells with optimal concentrations of HRF, phorbol 12-myristate 13-acetate (PMA) and tumor necrosis factor-α (TNF-α) and analyzing HIV-1 reactivation as a function of EGFP-expression over a period of 48 hours. Data for all agents are depicted as the percentage of EGFP-positive cells in the total cell population. […] To test the ability of HRF to mediate Tat-independent activation of the HIV-1 LTR, NOMI cells (HIV-1 reporter cell line with an integrated LTR-EGFP construct) were stimulated with increasing concentrations of PMA (0.01-10 ng/ml), TNF-α (0.003-30 μg/ml) and HRF supernatant (0.3-100 μl). The level of LTR-induction was then measured as EGFP-expression detectable after 24 hours as determined by flow cytometric analysis. Arrows indicate the concentrations at which the respective stimulus would have triggered full HIV-1 reactivation in the latently HIV-1 infected CA5 T cell line. […] 293T cells were transfected with several NF-κB dependent promoter constructs and then stimulated with either TNF-α (10 μg/ml) or HRF (25 μl). Promoter induction was measured as total EGFP expression. (NF-κB:pNF-κB-d2EGFP; LTR:HIV-1 LTR-GFP; IL-8:pIL-8 GFP; TNF:human TNF-GFP; MSCV:murine stem cell virus LTR driven GFP; no NF-κB responsive elements).
As the NF-κB pathway has been recognized as vital to HIV-1 activation, the ability of HRF to trigger NF-κB activation was investigated. It was initially determined that HRF had the ability to stimulate Tat independent activation of an integrated LTR-GFP construct in NOMI reporter T cells.

## Cc1c2oc3c(C)ccc(C(=O)N[C@@H]4C(=O)N[C@H](C(C)C)C(=O)N5CCC[C@H]5C(=O)N(C)CC(=O)N(C)[C@@H](C(C)C)C(=O)O[C@@H]4C)c3nc-2c(C(=O)N[C@@H]2C(=O)N[C@H](C(C)C)C(=O)N3CCC[C@H]3C(=O)N(C)CC(=O)N(C)[C@@H](C(C)C)C(=O)O[C@@H]2C)c(N)c1=O [dactinomycin] (I: T[dV]P[Sar][NMeV] / II: T[dV]P[Sar][NMeV]; ester I:1-I:C, II:1-II:C; linker I:N-II:N via Actinocin(9to1))
[1]
  effect on active HIV-1 infection / transcription (GFP MCF): did not boost active infection, but rather inhibited active infection
P-TEFb/HEXIM-1 complex; 0.004 μg/ml for 18 hours
  shift of CDK9 from large to small complex: shift of CDK9 presence from the large complex to the small complex was also detected
  shift of HEXIM-1 towards the small complex: no shift towards the small complex was observed
P-TEFb/HEXIM-1 complex; 1 μg/ml for 1 hour, J89GFP
  release of P-TEFb from its complex with HEXIM-1 (anti-CDK9): quantitatively released P-TEFb
P-TEFb/HEXIM-1 complex; 18 hours
  minimal concentration to induce a shift of HEXIM-1 towards the small complex: 0.01 µg/mL

B1: HRF: flagellin polypeptide from Massilia timonae (SEQ ID NO:10), used as bacterial culture supernatant (protein)
chain: MASVINTNVPSLNSQRNLSTSQAQLNTSIQRLSSGMRINSAKDDAAGLAISDRMNSQIKGMTQATRNANDGVSMAQTAEGALSSSGDILQRIRELAVQSSNSSNSASDRKALQTEVTQLSSELNRIANTTEFNGQKLMDGTLGTANFQVGANAGQLISMTGANFNTSVYGNNQIAGDAAKAAATTSAAATGAFTISGYLGTSAAINTTDADTAKTIAASINNVTGDTGVTATARTDSFLKSAGGAHTMSLASDNSGTGEAVDISFTVGDGGDTADDYAAAISAFNAQTAKTGVTAEYDAVEKGLKLTNSAGENISLTNKAGSADIDMDTYAADGALMASALTLEAGDVGVANGRVTMDSEKSFSVAEGTDTGFELADSSALKSVAKIDISDFEGAQEAIKVADAALSAVNSQRAEYGALQSRFESAISNLSSSTENLSASRSRIVDTDFAAETAKMTRGQILQQAGTSMLAQANSLPNGVLSLLRG
HIV-1 LTR
  Tat-independent activation of integrated LTR-GFP construct (GFP expression): modest increase in GFP expression
